Patent publication US12103915B2, “TEAD inhibitors and methods of uses thereof” (Insilico Medicine IP Limited, priority 2022, dated 2024)
Where two headings read alike, the source gives them in different places.

How the values were obtained:
NCI-H226 cells = assay: Cell growth assay (CellTiter-Glo); assay type: cell-based, human; settings: 7 days treatment, CellTiter-Glo luminescence, read-out: H226 CTG IC50
Procedure: Example A: Cell Growth Assay
CellTiter-Glo reagent (CTG reagent, Promega, G7573).
[…] Also seeding an extra plate as Day 0 control measurement. The microplates were incubated at 37° C., 5% CO2 overnight.
Compounds were 3-fold serial diluted in DMSO and final top-concentration was […], 10 points. 0.3% DMSO as vehicle control. In addition, […] of CTG reagent was added into the extra plate and incubated at room temperature for 30 minutes and detected luminescence signals as Day 0 control by using EnVision (PerkinElmer, 2104 Mutilabel Reader).
Incubated other compounds treated plates at 37° C. for another 7 days and […] of CTG reagent was added into the plates and incubated at room temperature for 30 minutes and detected luminescence signals.
Day 0 luminescence signals were used as negative control or baseline. • Signalday0=average luminescence signals of Day 0 control cells. • Signalblank control=average luminescence signals of blank control. • SignalDMSO vehicle control=average luminescence signals of Day 7 DMSO vehicle control cells. • Signalcpds treatment=luminescence signals of Day 7 compounds treatment cells. Inhibition %=1−(Signalcpds treatment−Signalblank control)/(SignalDMSO vehicle control−Signalblank control)*100.
(Inhibitory concentration 50% (IC50) and maximum inhibition % were calculated using dose response curves.

TEAD1 = TEAD1 (Homo sapiens, UniProt P28347); assay: Thermal shift assay TEAD1; assay type: binding
Procedure: (§1) Example B: Thermal Shift Assay
(§2) 1) Prepare a fresh dilution of Protein Thermal Shift™ Dye (Applied Biosystems, 1000×) to 8× by […].
(§3) 2) To ensure the same DMSO concentration, the compounds were diluted as follows: Prepare 10 mM stock solution of compounds;
(§4) The final DMSO concentration was 0.1%
(§5) 10 μM: Diluting stock solution to 100 μM by using PBS.
(§6) 1 μM: Diluting stock solution to 1 mM by using DMSO, then dilute to 10 μM by using PBS.
(§7) TEAD1: the stock concentration was 2.9 mg/ml; the final concentration was 0.2 mg/ml. TEAD2: the stock concentration was 1.8 mg/ml; the final concentration was 0.08 mg/ml.
(§8) 4) Place the appropriate reaction plate or tubes on ice, then prepare the protein melt reactions:
(§9) 5) Pipet each reaction up and down 10 times to mix well.
(§10) 6) Seal the plate with MicroAmp™ Optical Adhesive Film, spin it at 1000 rpm for 1 minute.
(§11) 7) Set up and run on the qPCR instrument.
(§12) Using thermal Shift™ Software v1.3 to analysis.

TEAD2 = TEAD2 (Homo sapiens, UniProt Q15562); assay: Thermal shift assay TEAD2; assay type: binding
Procedure: as §1, §2, §3, §4, §5, §6, §7, §8, §9, §10, §11, §12

TEAD3 = TEAD3 (Homo sapiens, UniProt Q99594); assay: Thermal shift assay TEAD3; assay type: binding
Procedure: as §1, §2, §3, §4, §5, §6
TEAD3: the stock concentration was 2.4 mg/ml; the final concentration was 0.1 mg/ml.
as §8, §9, §10, §11, §12

TEAD4 = TEAD4 (Homo sapiens, UniProt Q15561); assay: Thermal shift assay TEAD4; assay type: binding
Procedure: as §1, §2, §3, §4, §5, §6
TEAD4: the stock concentration was 2.3 mg/ml; the final concentration was 0.1 mg/ml.
as §8, §9, §10, §11, §12

TEAD1, sequence (P28347 whole entry, species assumed): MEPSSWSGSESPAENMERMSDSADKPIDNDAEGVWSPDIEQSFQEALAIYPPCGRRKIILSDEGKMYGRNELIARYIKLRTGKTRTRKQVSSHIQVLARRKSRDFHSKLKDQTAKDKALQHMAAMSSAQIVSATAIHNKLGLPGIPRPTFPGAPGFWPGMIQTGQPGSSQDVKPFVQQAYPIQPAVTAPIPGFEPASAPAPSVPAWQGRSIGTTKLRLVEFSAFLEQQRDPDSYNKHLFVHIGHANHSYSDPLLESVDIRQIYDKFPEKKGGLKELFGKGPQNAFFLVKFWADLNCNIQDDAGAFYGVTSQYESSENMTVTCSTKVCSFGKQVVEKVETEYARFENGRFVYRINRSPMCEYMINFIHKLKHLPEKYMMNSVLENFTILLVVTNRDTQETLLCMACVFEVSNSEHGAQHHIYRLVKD
TEAD2, sequence (Q15562 whole entry, species assumed): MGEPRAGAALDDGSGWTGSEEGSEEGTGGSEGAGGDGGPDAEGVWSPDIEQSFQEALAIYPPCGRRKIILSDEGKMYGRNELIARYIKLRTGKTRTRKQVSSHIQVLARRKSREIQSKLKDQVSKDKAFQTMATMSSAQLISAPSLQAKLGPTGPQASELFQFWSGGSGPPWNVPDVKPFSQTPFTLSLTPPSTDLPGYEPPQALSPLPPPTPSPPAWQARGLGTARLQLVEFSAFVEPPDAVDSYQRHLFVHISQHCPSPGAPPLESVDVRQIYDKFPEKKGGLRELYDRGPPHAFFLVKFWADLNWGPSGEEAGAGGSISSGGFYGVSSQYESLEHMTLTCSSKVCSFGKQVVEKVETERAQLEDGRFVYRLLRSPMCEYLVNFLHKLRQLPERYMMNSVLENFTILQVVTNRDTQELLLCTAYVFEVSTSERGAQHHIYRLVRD
TEAD4, sequence (Q15561 whole entry, species assumed): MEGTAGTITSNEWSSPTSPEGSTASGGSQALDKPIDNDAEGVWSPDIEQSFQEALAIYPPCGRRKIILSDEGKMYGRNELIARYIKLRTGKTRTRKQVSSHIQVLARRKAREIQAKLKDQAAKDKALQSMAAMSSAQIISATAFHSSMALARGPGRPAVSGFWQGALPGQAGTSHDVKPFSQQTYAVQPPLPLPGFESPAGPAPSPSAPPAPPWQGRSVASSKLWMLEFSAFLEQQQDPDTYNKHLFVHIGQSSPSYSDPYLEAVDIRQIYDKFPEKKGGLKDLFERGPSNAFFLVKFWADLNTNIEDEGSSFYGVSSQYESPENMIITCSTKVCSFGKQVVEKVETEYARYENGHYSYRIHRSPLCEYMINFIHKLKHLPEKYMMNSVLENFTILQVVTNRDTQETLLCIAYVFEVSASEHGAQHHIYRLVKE
TEAD3, sequence (Q99594 whole entry, species assumed): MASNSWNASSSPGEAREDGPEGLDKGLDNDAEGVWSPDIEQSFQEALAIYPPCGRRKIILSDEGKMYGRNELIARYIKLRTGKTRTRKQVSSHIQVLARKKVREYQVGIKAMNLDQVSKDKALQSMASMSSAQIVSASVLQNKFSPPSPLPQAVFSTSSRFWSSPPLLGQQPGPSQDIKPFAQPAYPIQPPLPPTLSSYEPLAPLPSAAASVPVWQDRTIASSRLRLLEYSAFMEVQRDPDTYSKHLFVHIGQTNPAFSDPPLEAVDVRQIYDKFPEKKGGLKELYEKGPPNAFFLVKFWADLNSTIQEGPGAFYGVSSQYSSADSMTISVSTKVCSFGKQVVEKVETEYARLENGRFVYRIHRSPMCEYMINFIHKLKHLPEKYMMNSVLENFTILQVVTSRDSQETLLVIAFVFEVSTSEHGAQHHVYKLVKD

Row | IC50 (NCI-H226 cells; Homo sapiens, NCI-H226, 168 h) [nM] | TEAD1 ΔTm (TEAD1) [°C] | TEAD2 ΔTm (TEAD2) [°C] | TEAD3 ΔTm (TEAD3) [°C] | TEAD4 ΔTm (TEAD4) [°C] | IC50 (NCI-H226 cells) [nM] | SMILES
1 | 1000 to 30000 | – | – | – | – | – | O=C(O)[C@@H]1CC1c1cc(-c2ccc(C(F)(F)F)cc2)cc2cn[nH]c12 (mixture of isomers) [Example 1]
2 | 1000 to 30000 | – | – | – | – | – | Cn1ncc2cc(-c3ccc(C(F)(F)F)cc3)cc(C3C[C@H]3C(=O)O)c21 (mixture of isomers) [Example 3]
3 | 1000 to 30000 | 5 | 1.6 | 1.1 | 4.2 | – | O=C(O)[C@@H]1CC1c1cc(-c2ccc(C(F)(F)F)cc2)cc2cn(-c3cccnc3)nc12 (mixture of isomers) [Example 4]
4 | 1000 to 30000 | – | – | – | – | – | O=C(O)[C@@H]1CC1c1cc(-c2ccc(C(F)(F)F)cc2)cc2[nH]ncc12 (mixture of isomers) [Example 5]
5 | 100 to 500 | – | – | – | – | – | Cn1cc2c(C3C[C@H]3C(=O)O)cc(-c3ccc(C(F)(F)F)cc3)cc2n1 (mixture of isomers) [Example 6]
6 | – | 5.7 | 5.7 | 2 | 7.2 | 100 to 500 | Cn1ncc2c(C3C[C@H]3C(=O)O)cc(-c3ccc(C(F)(F)F)cc3)cc21 (mixture of isomers) [Example 7]
7 | – | – | – | – | – | 1000 to 30000 | Cn1ncc2c(C3C[C@H]3C(=O)O)cc(-c3ccc(C(F)(F)F)cc3)cc21 (mixture of isomers) [Example 8]
8 | 100 to 500 | 5.8 | 4.1 | 1.2 | 5.6 | – | O=C(O)[C@@H]1CC1c1cc(-c2ccc(C(F)(F)F)cc2)cc2c1cnn2C(F)F (mixture of isomers) [Example 9]
9 | 100 to 500 | 6 | 7.7 | 2 | 7.3 | – | Cn1ncc2c(C3C[C@H]3C(=O)O)cc(-c3ccc(OC(F)(F)F)cc3)cc21 (mixture of isomers) [Example 10]
10 | < 100 | 7.7 | 9.4 | 2.3 | 11.5 | – | Cn1cc2cc(-c3ccc(OC(F)(F)F)cc3)cc(C3C[C@H]3C(=O)O)c2n1 (mixture of isomers) [Example 12]
11 | < 100 | 7.7 | 6.6 | 1.8 | 8.3 | – | O=C(O)[C@@H]1CC1c1cc(-c2ccc(C(F)(F)F)cc2)cc2cccnc12 (mixture of isomers) [Example 13]
12 | 1000 to 30000 | 0.4 | 0.3 | 0 | 0.2 | – | O=C(O)[C@@H]1CC1c1cc(-c2ccc(C(F)(F)F)cc2)cc2scnc12 (mixture of isomers) [Example 14]
13 | 100 to 500 | 5 | 5.1 | 1.2 | 3.7 | – | CN1Cc2cc(-c3ccc(C(F)(F)F)cc3)cc(C3C[C@H]3C(=O)O)c2C1=O (mixture of isomers) [Example 15]
14 | 1000 to 30000 | 1.9 | 3.4 | 0.9 | 1.8 | – | Cn1ncc2c(C3C[C@H]3C(=O)O)cc(OCc3ccc(C(F)(F)F)cc3)cc21 (mixture of isomers) [Example 19]
15 | 100 to 500 | 3.8 | 6.8 | 3.2 | 5.9 | – | O=C(O)[C@@H]1CC1c1cn(-c2ccc(C(F)(F)F)cc2)c2cccnc12 (mixture of isomers) [Example 20]
16 | < 100 | 11 | 6.7 | 5.2 | 9.3 | – | Cc1ccc2c(c1)c(C1C[C@H]1C(=O)O)cn2-c1ccc(C(F)(F)F)cc1 (mixture of isomers) [Example 21]
17 | < 100 | 4.5 | 5.5 | 1.1 | 5.7 | – | CNC(=O)[C@@H]1CC1c1cc(-c2ccc(C(F)(F)F)cc2)cc2c1=NC(C)N=2 (mixture of isomers) [Example 22]

Row | IC50 (NCI-H226 cells; Homo sapiens, NCI-H226, 168 h) [nM] | TEAD1 ΔTm (TEAD1) [°C] | TEAD2 ΔTm (TEAD2) [°C] | TEAD3 ΔTm (TEAD3) [°C] | TEAD4 ΔTm (TEAD4) [°C] | IC50 (NCI-H226 cells) [nM] | SMILES
18 | 100 to 500 | 4.7 | 3.5 | 0.7 | 6.5 | – | CCNC(=O)[C@@H]1CC1c1cc(-c2ccc(C(F)(F)F)cc2)cc2c1=NC(C)N=2 (mixture of isomers) [Example 23]
19 | < 100 | 5.4 | 6.9 | 0.7 | 6.6 | – | Cn1ncc2c(C3C[C@H]3C(N)=O)cc(-c3ccc(C(F)(F)F)cc3)cc21 (mixture of isomers) [Example 25]
20 | 100 to 500 | 1.7 | 1.9 | 0.1 | 1.7 | – | CN(C)C(=O)[C@@H]1CC1c1cc(-c2ccc(C(F)(F)F)cc2)cc2c1cnn2C (mixture of isomers) [Example 26]
21 | 100 to 500 | 0.6 | 0.5 | 0.3 | 0.6 | – | CC(C)NC(=O)[C@@H]1C[C@H]1c1cc(-c2ccc(C(F)(F)F)cc2)cc2c1cnn2C (racemic) [Example 27]
22 | 100 to 500 | 3.7 | 0.5 | 0.5 | 2.4 | – | CC(NC(=O)[C@@H]1C[C@H]1c1cc(-c2ccc(C(F)(F)F)cc2)cc2c1cnn2C)c1ccccn1 (mixture of isomers) [Example 28]
23 | 500 to 1000 | – | – | – | – | – | Cn1ncc2c([C@@H]3C[C@H]3C(=O)NCCO)cc(-c3ccc(C(F)(F)F)cc3)cc21 (racemic) [Example 29]
24 | 100 to 500 | 1.6 | 0.8 | 0.1 | 0.9 | – | COCCNC(=O)[C@@H]1C[C@H]1c1cc(-c2ccc(C(F)(F)F)cc2)cc2c1cnn2C (racemic) [Example 30]
25 | 100 to 500 | 3 | 2.7 | 0 | 2.8 | – | Cn1ncc2c([C@@H]3C[C@H]3C(=O)N3CC(O)C3)cc(-c3ccc(C(F)(F)F)cc3)cc21 (racemic) [Example 31]
26 | 100 to 500 | 2.1 | 0.9 | 0.2 | 1.3 | – | CNC(=O)[C@@H]1C[C@H]1c1cc(-c2ccc(C(F)(F)F)cc2)cc2c1cnn2C(F)F (racemic) [Example 32]
27 | < 100 | 4 | 6.7 | 0.6 | 6.5 | – | CNC(=O)[C@@H]1CC1c1cc(-c2ccc(OC(F)(F)F)cc2)cc2cn(C)nc12 (mixture of isomers) [Example 33]
28 | < 100 | 8.5 | 12.7 | 6.6 | 10.3 | – | CNC(=O)[C@@H]1CC1c1cc(Oc2ccc(C(F)(F)F)cc2)cc2cn(C)nc12 (mixture of isomers) [Example 34]
29 | < 100 | 5.4 | 11.2 | 5.4 | 6.1 | – | Cn1ncc2c(C3C[C@H]3C(N)=O)cc(Oc3ccc(C(F)(F)F)cc3)cc21 (mixture of isomers) [Example 35]
30 | < 100 | 6.8 | 12.9 | 4.6 | 4.3 | – | CNC(=O)[C@@H]1CC1c1cc(Oc2ccc(C(F)(F)F)cc2)cc2c1cnn2C (mixture of isomers) [Example 36]
31 | 1000 to 30000 | – | – | – | – | – | Cn1cc2cc(Oc3ccc(C(F)(F)F)cc3)cc([C@@H]3C[C@H]3C(=O)N3CC(O)C3)c2n1 (single isomer, unassigned) [Example 58a]
32 | < 100 | – | – | – | – | – | C[C@H](C#N)NC(=O)[C@@H]1C[C@H]1c1cc(Oc2ccc(C(F)(F)F)cc2)cc2cn(C)nc12 (single isomer, unassigned) [Example 68]
33 | 1000 to 30000 | – | – | – | – | – | Cc1cn2cc(Oc3ccc(C(F)(F)F)cc3)cc(C3C[C@H]3C(=O)N3CC(O)C3)c2n1 (single isomer, unassigned) [Example 85a]
34 | 1000 to 30000 | – | – | – | – | – | C=C(CS(=O)(=O)NC)c1cc(-c2ccc(C(F)(F)F)cc2)cc2c1cnn2C [Example 43]
